Source: USRE29883E, “Antibacterial product” (Cosan Chemical Corporation, priority 1977, dated 1979)

What was measured:
Acute Oral LD50 = conditions: in vivo, standard, accepted protocols
Excerpt: (§1) Both the acute oral LD50 and acute dermal LD50 tests were run in accordance with standard, accepted protocols.

Acute Dermal LD50 = conditions: in vivo, topical or ocular, standard, accepted protocols
Excerpt: as §1

Pseudomonas aeruginosa = assay: antibacterial properties of latex paint inoculated with Pseudomonas aeruginosa (Example 4); conditions: 3.6 grams adduct in vinyl acrylic paint
Description: To a 1 gallon stainless steel beaker, equipped with a sheer type agitator, the following ingredients are charged in sequence:
This premix is then added to the above with agitation such that excessive air is not incorporated. To the above prepared combination is added 1,401 grams of a vinyl acrylic resin emulsion and mixed for a period of 10 minutes.
The resulting paint prepared above was examined for antibacterial properties by inoculating a portion with approximately 10^8 organisms per ml Pseudomonas aeruginosa. Paint samples returned to sterility within 24 hours of inoculation and maintained the same degree of preservation for periods in excess of 9 months, at which time the testing was discontinued.

bacterial cultures = assay: microbial stability of oil-water hair dressing emulsion (Example 5); conditions: 0.2% adduct in oil-water hair dressing emulsion; after 6 months at 35° C
Description: The following is a formulation for an oil-water hair dressing emulsion: […]
Part A is heated to 75° C. and Part B is heated to 70° C. The test compound (Part C) is dissolved in Part B and the resulting solution added to Part A with good agitation. The mixture was perfumed 45° C. and agitated until cold.
The composition prepared above was tested for microbial stability for a period of 6 months and after 6 months at 35° C.

common forms of bacteria = assay: antimicrobial effectiveness in water-based systems, general statement; conditions: relative to suggested range 0.05% to 0.20%
Excerpt: The two-to-one quaternary ammonium adduct of this invention is useful in the preparation and storage of systems susceptible to deterioration by microorganisms such as the common forms of bacteria. The exact concentration of the adduct during use is dependent upon a number of factors including duration of storage, temperature of storage, etc.

[1] = test system: gram positive and gram negative microorganisms; assay: antimicrobial spectrum, general statement
Excerpt: The two-to-one quaternary ammonium adduct of this invention is particularly useful as an antimicrobial agent in a wide variety of water-based systems such as latex paints, resin emulsions, joint cement, adhesives, dispersed pigments and dyes, and other similar aqueous compositions.

water solubility = assay type: physicochemical
thermal decomposition = assay type: physicochemical
[2] = toxicological comparison with the one-to-one adducts (acute dermal and acute oral LD50); assay type: in vivo
Excerpt: Additionally, the two-to-one adduct formed from hexamethylenetetramine and 3,4-dichlorobutene-1 according to this invention is less toxic than either the Frank or Wolf one-to-one adducts.
as §1

[3] = data available from Dow Chemical on Dowicil 100; cited from earlier work
[4] = data available from Dow Chemical on Dowicil 200; cited from earlier work

SMILES	LD50 (Acute Oral LD50) [mg/kg]	LD50 (Acute Dermal LD50) [mg/kg]	preservation of paint viscosity, stability and performance characteristics (Pseudomonas aeruginosa)	time for paint samples to return to sterility after inoculation (Pseudomonas aeruginosa; approximately 10^8 organisms per ml Pseudomonas aeruginosa) [h]	period for which the same degree of preservation was maintained (Pseudomonas aeruginosa; testing then discontinued) [months]	resistance to bacterial contamination on inoculation with bacterial cultures (bacterial cultures)	minimal inhibitory concentrations vis-a-vis the common bacteria (common forms of bacteria)	effectiveness against microorganisms [1]	water solubility (water solubility)	decomposition point (thermal decomposition)	toxicity relative to the Frank or Wolf one-to-one adducts [2]	Acute Oral LD50 [3] [mg/kg]	Acute Dermal LD50 [4] [mg/kg]
C(=CC[N+]12CN3CN(CN(C3)C1)C2)C[N+]12CN3CN(CN(C3)C1)C2 [1,1'-(but-2-enylene) bis(3,5,7-triaza-1-azoniaadamantane chloride)]	3400	8000	maintained the viscosity, stability and performance characteristics of the paint	≤ 24	> 9	still resistant to bacterial contamination	much less than this suggested range	effective against a broad spectrum of gram positive and gram negative microorganisms	water-soluble	about 130 °C	less toxic	–	–
ClCC=CC[N+]12CN3CN(CN(C3)C1)C2 [reference compound]	1600	2000	–	–	–	–	–	–	–	–	–	–	–
ClC=CC[N+]12CN3CN(CN(C3)C1)C2	–	–	–	–	–	–	–	–	–	–	–	745	540
